Measured values taken from publication PMC7534258, “Novel temporin L antimicrobial peptides: promoting self-assembling by lipidic tags to tackle superbugs” (Journal of Enzyme Inhibition and Medicinal Chemistry, 2020).
Where a SMILES comes first, the peptide text is derived from it. [ ]: non-standard residue; d: D form. The star is where a group is joined. Tridecanoyl = CCCCCCCCCCCCC(=O)*; Undecanoyl = CCCCCCCCCCC(=O)*; Heptanoyl = CCCCCCC(=O)*; Orn = NCCC[C@H](N)C(=O)O; Pentanoyl = CCCCC(=O)*

How the values were obtained:
P. aeruginosa ATCC 27853 = test: Broth microdilution MIC, reference strain; assay type: cell-based, Pseudomonas aeruginosa; settings: 100% growth inhibition after 16–18 h at 37 °C
Method: (§1) Staphylococcus aureus ATCC 25923, Pseudomonas aeruginosa ATCC 27853 and Klebsiella pneumoniae ATCC BAA-1705 (carbapenemase producer) were obtained from the American Type Culture Collection (Rockville, MD).
(§2) Identification was performed by sub-culturing on Tryptic Soy Agar (TSA, Becton Dickinson) and by biochemical characterisation using the Vitek II system (Biomerieux). The antimicrobial susceptibility testing of all isolates was determined using Vitek II system and results were interpreted according to European Committee on Antimicrobial Susceptibility Testing (EUCAST version 9.0, 2019). P. aeruginosa was cultured in Brain Heart Infusion broth (BHI, OXOID), S. aureus and K. pneumoniae were cultured in Tryptic Soya broth (TSB, OXOID), under aerobic conditions at 37 °C, for 24 h on an orbital shaker at 200 rpm.
(§3) Minimal inhibitory concentrations (MIC) of all the peptides were determined in Mueller–Hinton medium by the broth microdilution assay, following the procedure already described[22]^,[34]. The compounds were added to bacterial suspension in each well yielding a final cell concentration of 1 × 10^6 CFU/ml and a final compound concentration ranging from 0.78 to 100 µM. Negative control wells were set to contain bacteria in Mueller–Hinton broth plus the amount of vehicle (ethanol) used to dilute each compound. Positive controls included vancomycin (2 µg/ml), tobramycin (4 µg/ml), gentamycin (4 µg/ml), and imipenem (8 µg/ml).

[1] = tested on: K. pneumoniae ATCC BAA-1705; test: Broth microdilution MIC, reference strain; assay type: cell-based, Klebsiella pneumoniae
Method: as §1, §2, §3

S. aureus ATCC 25923 = test: microbe, parasite or virus in culture
Method: as §1, §2, §3

[2] = 100% growth inhibition after 16–18 h at 37 °C

With `CC[C@H](C)[C@H](NC(=O)[C@H](CCCNC(=N)N)NC(=O)CNC(=O)[C@@H](CC(C)C)NC(=O)[C@H](Cc1ccccc1)NC(=O)[C@H](CCCCN)NC(=O)[C@H](CO)NC(=O)[C@H](Cc1ccccc1)NC(=O)[C@H](Cc1c[nH]c2ccccc12)NC(=O)[C@@H]1CCCN1C(=O)[C@@H](NC(=O)[C@@H](N)Cc1ccccc1)C(C)C)C(=O)N[C@@H](CC(C)C)C(N)=O` [Compound 1A, H-Phe-Val-Pro-Trp-Phe-Ser-Lys-Phe-dLeu-Gly-Arg-Ile-Leu-NH2] (H-FVPWFSKF[dL]GRIL-NH2) the “Antimicrobial activity (MIC) P. aeruginosa ATCC 27853” value (P. aeruginosa ATCC 27853) was 50 µM, the “Antimicrobial activity (MIC) K. pneumoniae ATCC BAA-1705” value [1, 2] was 50 µM and the “Antimicrobial activity (MIC) S. aureus ATCC 25923” value (S. aureus ATCC 25923; [2]) was 6.25 µM.

With `CCCCC(=O)N[C@@H](Cc1ccccc1)C(=O)N[C@H](C(=O)N1CCC[C@H]1C(=O)N[C@@H](Cc1c[nH]c2ccccc12)C(=O)N[C@@H](Cc1ccccc1)C(=O)N[C@@H](CO)C(=O)N[C@@H](CCCCN)C(=O)N[C@@H](Cc1ccccc1)C(=O)N[C@H](CC(C)C)C(=O)NCC(=O)N[C@@H](CCCNC(=N)N)C(=O)N[C@H](C(=O)N[C@@H](CC(C)C)C(N)=O)[C@@H](C)CC)C(C)C` [Compound 2A, CH3(CH2)3CO-Phe-Val-Pro-Trp-Phe-Ser-Lys-Phe-DLeu-Gly-Arg-Ile-Leu-NH2] (Pentanoyl-FVPWFSKF[dL]GRIL-NH2) the “Antimicrobial activity (MIC) S. aureus ATCC 25923” value (S. aureus ATCC 25923; ATCC 25923) was 12.5 µM.

With `CCCCCCC(=O)N[C@@H](Cc1ccccc1)C(=O)N[C@H](C(=O)N1CCC[C@H]1C(=O)N[C@@H](Cc1c[nH]c2ccccc12)C(=O)N[C@@H](Cc1ccccc1)C(=O)N[C@@H](CO)C(=O)N[C@@H](CCCCN)C(=O)N[C@@H](Cc1ccccc1)C(=O)N[C@H](CC(C)C)C(=O)NCC(=O)N[C@@H](CCCNC(=N)N)C(=O)N[C@H](C(=O)N[C@@H](CC(C)C)C(N)=O)[C@@H](C)CC)C(C)C` [Compound 3A, CH3(CH2)5CO-Phe-Val-Pro-Trp-Phe-Ser-Lys-Phe-DLeu-Gly-Arg-Ile-Leu-NH2] (Heptanoyl-FVPWFSKF[dL]GRIL-NH2) the “Antimicrobial activity (MIC) S. aureus ATCC 25923” value (S. aureus ATCC 25923; ATCC 25923) was 12.5 µM.

For `CCCCCCCCCCC(=O)N[C@@H](Cc1ccccc1)C(=O)N[C@H](C(=O)N1CCC[C@H]1C(=O)N[C@@H](Cc1c[nH]c2ccccc12)C(=O)N[C@@H](Cc1ccccc1)C(=O)N[C@@H](CO)C(=O)N[C@@H](CCCCN)C(=O)N[C@@H](Cc1ccccc1)C(=O)N[C@H](CC(C)C)C(=O)NCC(=O)N[C@@H](CCCNC(=N)N)C(=O)N[C@H](C(=O)N[C@@H](CC(C)C)C(N)=O)[C@@H](C)CC)C(C)C` [Compound 4A, CH3(CH2)9CO-Phe-Val-Pro-Trp-Phe-Ser-Lys-Phe-DLeu-Gly-Arg-Ile-Leu-NH2] (Undecanoyl-FVPWFSKF[dL]GRIL-NH2), the “Antimicrobial activity (MIC) P. aeruginosa ATCC 27853” value (P. aeruginosa ATCC 27853) was greater than 100 µM, the “Antimicrobial activity (MIC) K. pneumoniae ATCC BAA-1705” value [1, 2] was greater than 100 µM and the “Antimicrobial activity (MIC) S. aureus ATCC 25923” value (S. aureus ATCC 25923; [2]) was greater than 100 µM.

In the case of `CCCCCCCCCCC(=O)N[C@@H](Cc1ccccc1)C(=O)N[C@H](C(=O)N1CCC[C@H]1C(=O)N[C@@H](Cc1c[nH]c2ccccc12)C(=O)N[C@@H](Cc1ccccc1)C(=O)N[C@@H](CO)C(=O)N[C@@H](CCCCN)C(=O)N[C@@H](Cc1ccccc1)C(=O)N[C@H](CC(C)C)C(=O)N[C@H](CCCCN)C(=O)N[C@@H](CCCNC(=N)N)C(=O)N[C@H](C(=O)N[C@@H](CC(C)C)C(N)=O)[C@@H](C)CC)C(C)C` [Compound 4B, CH3(CH2)9CO-Phe-Val-Pro-Trp-Phe-Ser-Lys-Phe-DLeu-DLys-Arg-Ile-Leu-NH2] (Undecanoyl-FVPWFSKF[dL][dK]RIL-NH2), the “Antimicrobial activity (MIC) P. aeruginosa ATCC 27853” value (P. aeruginosa ATCC 27853) is reported as greater than 100 µM, the “Antimicrobial activity (MIC) K. pneumoniae ATCC BAA-1705” value [1, 2] is reported as greater than 100 µM and the “Antimicrobial activity (MIC) S. aureus ATCC 25923” value (S. aureus ATCC 25923; [2]) is reported as greater than 100 µM.

With `CCCCCCCCCCCCC(=O)N[C@@H](Cc1ccccc1)C(=O)N[C@H](C(=O)N1CCC[C@H]1C(=O)N[C@@H](Cc1c[nH]c2ccccc12)C(=O)N[C@@H](Cc1ccccc1)C(=O)N[C@@H](CO)C(=O)N[C@@H](CCCCN)C(=O)N[C@@H](Cc1ccccc1)C(=O)N[C@H](CC(C)C)C(=O)NCC(=O)N[C@@H](CCCNC(=N)N)C(=O)N[C@H](C(=O)N[C@@H](CC(C)C)C(N)=O)[C@@H](C)CC)C(C)C` [Compound 5A, CH3(CH2)11CO-Phe-Val-Pro-Trp-Phe-Ser-Lys-Phe-DLeu-Gly-Arg-Ile-Leu-NH2] (Tridecanoyl-FVPWFSKF[dL]GRIL-NH2) the “Antimicrobial activity (MIC) P. aeruginosa ATCC 27853” value (P. aeruginosa ATCC 27853) was greater than 100 µM, the “Antimicrobial activity (MIC) K. pneumoniae ATCC BAA-1705” value [1, 2] was greater than 100 µM and the “Antimicrobial activity (MIC) S. aureus ATCC 25923” value (S. aureus ATCC 25923; [2]) was greater than 100 µM.

For `CCCCCCCCCCCCC(=O)N[C@@H](Cc1ccccc1)C(=O)N[C@H](C(=O)N1CCC[C@H]1C(=O)N[C@@H](Cc1c[nH]c2ccccc12)C(=O)N[C@@H](Cc1ccccc1)C(=O)N[C@@H](CO)C(=O)N[C@@H](CCCCN)C(=O)N[C@@H](Cc1ccccc1)C(=O)N[C@H](CC(C)C)C(=O)N[C@H](CCCCN)C(=O)N[C@@H](CCCNC(=N)N)C(=O)N[C@H](C(=O)N[C@@H](CC(C)C)C(N)=O)[C@@H](C)CC)C(C)C` [Compound 5B, CH3(CH2)11CO-Phe-Val-Pro-Trp-Phe-Ser-Lys-Phe-DLeu-DLys-Arg-Ile-Leu-NH2] (Tridecanoyl-FVPWFSKF[dL][dK]RIL-NH2), the “Antimicrobial activity (MIC) P. aeruginosa ATCC 27853” value (P. aeruginosa ATCC 27853) was greater than 100 µM, the “Antimicrobial activity (MIC) K. pneumoniae ATCC BAA-1705” value [1, 2] was greater than 100 µM and the “Antimicrobial activity (MIC) S. aureus ATCC 25923” value (S. aureus ATCC 25923; [2]) was greater than 100 µM.

With `CCCCC(=O)NCCC[C@H](NC(=O)[C@H](CC(C)C)NC(=O)[C@@H](NC(=O)[C@H](CCCNC(=N)N)NC(=O)[C@@H](CCCCN)NC(=O)[C@@H](CC(C)C)NC(=O)[C@H](Cc1ccccc1)NC(=O)[C@H](CCCCN)NC(=O)[C@H](CO)NC(=O)[C@H](Cc1ccccc1)NC(=O)[C@H](Cc1c[nH]c2ccccc12)NC(=O)[C@@H]1CCCN1C(=O)[C@@H](NC(=O)[C@@H](N)Cc1ccccc1)C(C)C)[C@@H](C)CC)C(N)=O` [D, H-Phe-Val-Pro-Trp-Phe-Ser-Lys-Phe-DLeu-DLys-Arg-Ile-Leu-Orn(NHCO(CH2)3CH3)-NH2] (H-FVPWFSKF[dL][dK]RIL[Orn](Pentanoyl)-NH2) the “Antimicrobial activity (MIC) K. pneumoniae ATCC BAA-1705” value ([1]; ATCC BAA-1705) was 50 µM and the “Antimicrobial activity (MIC) S. aureus ATCC 25923” value (S. aureus ATCC 25923; ATCC 25923) was 25 µM.

In the case of `CCCCCCC(=O)NCCC[C@H](NC(=O)[C@H](CC(C)C)NC(=O)[C@@H](NC(=O)[C@H](CCCNC(=N)N)NC(=O)[C@@H](CCCCN)NC(=O)[C@@H](CC(C)C)NC(=O)[C@H](Cc1ccccc1)NC(=O)[C@H](CCCCN)NC(=O)[C@H](CO)NC(=O)[C@H](Cc1ccccc1)NC(=O)[C@H](Cc1c[nH]c2ccccc12)NC(=O)[C@@H]1CCCN1C(=O)[C@@H](NC(=O)[C@@H](N)Cc1ccccc1)C(C)C)[C@@H](C)CC)C(N)=O` [E, H-Phe-Val-Pro-Trp-Phe-Ser-Lys-Phe-DLeu-DLys-Arg-Ile-Leu-Orn(NHCO(CH2)5CH3)-NH2] (H-FVPWFSKF[dL][dK]RIL[Orn](Heptanoyl)-NH2), the “Antimicrobial activity (MIC) K. pneumoniae ATCC BAA-1705” value ([1]; ATCC BAA-1705) is reported as 50 µM and the “Antimicrobial activity (MIC) S. aureus ATCC 25923” value (S. aureus ATCC 25923; ATCC 25923) is reported as 25 µM.
